Reference: ChEMBL document CHEMBL6109148, “Development of Squaramides as Allosteric Modulators of the CB1 Receptor: Synthesis, Computational Studies, Biological Characterization, and Effects against Cocaine-Induced Behavioral Sensitization and Reinstatement in Rats” (J Med Chem, 2025)

What was measured:
[1] = biological target: T1, Cannabinoid receptor 1 (Homo sapiens, UniProt P21554); experiment: Agonist activity at human CB1 receptor stably expressed in CHO-RD-HGA16 cells assessed as increase in intracellular calcium mobilization at 10 uM by FLIPR assay relative to CP55940; format: functional, cell-based
T1 sequence (P21554 whole entry): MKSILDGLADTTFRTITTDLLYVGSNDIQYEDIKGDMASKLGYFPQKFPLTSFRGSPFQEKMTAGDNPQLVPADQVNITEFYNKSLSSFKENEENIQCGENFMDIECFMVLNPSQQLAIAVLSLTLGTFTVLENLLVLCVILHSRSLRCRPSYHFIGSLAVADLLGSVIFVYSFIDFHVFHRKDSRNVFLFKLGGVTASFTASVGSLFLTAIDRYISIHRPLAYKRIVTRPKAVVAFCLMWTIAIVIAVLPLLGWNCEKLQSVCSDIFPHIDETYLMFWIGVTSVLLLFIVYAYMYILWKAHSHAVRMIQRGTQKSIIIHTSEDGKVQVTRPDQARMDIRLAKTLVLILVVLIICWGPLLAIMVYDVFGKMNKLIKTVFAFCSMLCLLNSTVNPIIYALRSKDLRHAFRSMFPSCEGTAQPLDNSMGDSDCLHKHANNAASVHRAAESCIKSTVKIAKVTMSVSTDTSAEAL

[2] = biological target: Cannabinoid receptor 2 (Homo sapiens) (UniProt P34972); experiment: Antagonist activity at human CB2 receptor stably expressed in CHO-RD-HGA16 cells assessed as inhibition of CP55940-induced intracellular calcium mobilization at 10 uM by FLIPR assay relative to CP55940; format: functional, cell-based; set-up: scale not given: the % may be the effect or the level left
Sequence of Cannabinoid receptor 2 (Homo sapiens) (P34972 whole entry): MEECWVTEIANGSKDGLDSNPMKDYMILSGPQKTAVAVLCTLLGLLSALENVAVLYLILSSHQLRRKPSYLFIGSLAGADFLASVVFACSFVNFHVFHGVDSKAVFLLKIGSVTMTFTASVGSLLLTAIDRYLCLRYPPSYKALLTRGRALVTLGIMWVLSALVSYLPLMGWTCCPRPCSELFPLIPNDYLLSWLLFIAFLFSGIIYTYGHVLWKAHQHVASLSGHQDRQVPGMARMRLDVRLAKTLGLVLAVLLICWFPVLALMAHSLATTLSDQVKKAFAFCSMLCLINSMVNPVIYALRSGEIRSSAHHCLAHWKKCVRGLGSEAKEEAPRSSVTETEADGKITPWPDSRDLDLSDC

[3] = biological target: T1, Cannabinoid receptor 1; experiment: Negative allosteric modulation of human CB1 receptor stably expressed in CHO-RD-HGA16 cells assessed as inhibition of CP55940-induced intracellular calcium mobilization incubated for 15 mins by FLIPR assay; format: functional, cell-based
[4] = biological target: Cannabinoid receptor 1 (Mus musculus, UniProt P47746); experiment: Negative allosteric modulation of CD-1 mouse CB1 receptor extracted from cerebellum membrane in presence of [35S]GTP-gammaS; format: cell membranes
Sequence of Cannabinoid receptor 1 (Mus musculus, UniProt P47746) (P47746 whole entry): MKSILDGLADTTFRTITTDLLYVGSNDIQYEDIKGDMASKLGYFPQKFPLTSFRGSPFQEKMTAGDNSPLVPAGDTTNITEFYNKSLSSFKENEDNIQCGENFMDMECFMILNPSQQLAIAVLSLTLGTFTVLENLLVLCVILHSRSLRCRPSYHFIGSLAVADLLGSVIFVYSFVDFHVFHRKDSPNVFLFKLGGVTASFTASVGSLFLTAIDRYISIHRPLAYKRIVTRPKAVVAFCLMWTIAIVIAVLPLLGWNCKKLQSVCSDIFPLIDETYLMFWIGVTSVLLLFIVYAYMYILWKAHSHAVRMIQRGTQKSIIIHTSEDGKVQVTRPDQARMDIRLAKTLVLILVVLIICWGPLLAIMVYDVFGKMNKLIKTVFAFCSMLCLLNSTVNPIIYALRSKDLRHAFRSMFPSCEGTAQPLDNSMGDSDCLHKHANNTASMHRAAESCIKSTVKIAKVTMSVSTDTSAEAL

[5] = biological target: T1, Cannabinoid receptor 1; experiment: Negative allosteric modulation of human CB1 extracted from HEK293 cell membrane assessed as increase in forskolin-induced cAMP production preincubated for 15 mins followed by forskolin/CP55940 addition by BRET CAMYEL cAMP assay
[6] = biological target: T1, Cannabinoid receptor 1; experiment: Negative allosteric modulation of human CB1 extracted from HEK293 cell membrane assessed as specific binding of [3H]CP55940 incubated for 90 mins; format: cell membranes
[7] = Stability in human liver microsomes assessed as half life at 1 uM preincubated for 10 mis followed by NADPH addition measured for 15 to 60 mins by LC-MS/MS analysis; format: ADME, Microsome; settings: time 25-70 min
[8] = Stability in human liver microsomes assessed as clearance at 1 uM preincubated for 10 mis followed by NADPH addition measured for 15 to 60 mins by LC-MS/MS analysis; format: ADME, Microsome; settings: time 25-70 min
[9] = Stability in human hepatocytes assessed as half life at 1 uM measured up to 120 mins by LC/MS/MS analysis; format: ADME, cell-based, Hepatocyte; settings: 2 h
[10] = Stability in human hepatocytes assessed as clearance at 1 uM measured up to 120 mins by LC/MS/MS analysis; format: ADME, cell-based, Hepatocyte; settings: 2 h
[11] = Kinetic solubility of compound in PBS incubated for 2 hrs by LC-MS/MS analysis; format: physicochemical; settings: read-out: Kinetic_solubility
[12] = Apparent permeability across apical to basal side in MDCK-MDR1 cells at 10 uM measured for 30 to 90 mins by LC-MS/MS analysis; format: ADME, cell-based, Canis lupus familiaris; settings: dog, mdck-mdr1, 10 µM, time 30-90 min
[13] = Apparent permeability across basal to apical side in MDCK-MDR1 cells at 10 uM measured for 30 to 90 mins by LC-MS/MS analysis; format: ADME, cell-based, Canis lupus familiaris; settings: dog, mdck-mdr1, 10 µM, time 30-90 min
[14] = Protein binding in rat plasma at 1 uM incubated for 6 hrs by LC-MS/MS analysis; format: ADME, cell-free
[15] = Protein binding in rat brain at 1 uM incubated for 6 hrs by LC-MS/MS analysis; format: ADME, tissue-based
[16] = Protein binding in human plasma at 1 uM incubated for 6 hrs by LC-MS/MS analysis; format: ADME, cell-free
[17] = Drug concentration in plasma of Sprague-Dawley rat at 1 mg/kg, iv measured after 5 mins by LC-MS/MS analysis; format: ADME, organism-based
[18] = Drug excretion in Sprague-Dawley rat at 1 mg/kg, iv measured after 4 hrs by LC-MS/MS analysis; format: ADME, organism-based; settings: in vivo
[19] = Half life in Sprague-Dawley rat at 1 mg/kg, iv measured for 0.08 to 8 hrs by LC-MS/MS analysis; format: ADME, organism-based; settings: in vivo, time 0.08-8 hrs
[20] = Drug concentration in plasma of Sprague-Dawley rat at 5.6 mg/kg, ip measured after 0.25 hrs by LC-MS/MS analysis; format: ADME, organism-based
[21] = Drug concentration in plasma of Sprague-Dawley rat at 5.6 mg/kg, ip measured after 0.5 hrs by LC-MS/MS analysis; format: ADME, organism-based
[22] = Drug concentration in plasma of Sprague-Dawley rat at 5.6 mg/kg, ip measured after 1 hr by LC-MS/MS analysis; format: ADME, organism-based
[23] = Drug concentration in plasma of Sprague-Dawley rat at 5.6 mg/kg, ip measured after 8 hrs by LC-MS/MS analysis; format: ADME, organism-based
[24] = Drug concentration in brain of Sprague-Dawley rat at 5.6 mg/kg, ip measured after 0.25 hrs by LC-MS/MS analysis; format: ADME, organism-based; settings: read-out: Ct
[25] = Drug concentration in brain of Sprague-Dawley rat at 5.6 mg/kg, ip measured after 0.5 hrs by LC-MS/MS analysis; format: ADME, organism-based; settings: read-out: Ct
[26] = Drug concentration in brain of Sprague-Dawley rat at 5.6 mg/kg, ip measured after 1 hr by LC-MS/MS analysis; format: ADME, organism-based; settings: read-out: Ct
[27] = Drug concentration in brain of Sprague-Dawley rat at 5.6 mg/kg, ip measured after 8 hrs by LC-MS/MS analysis; format: ADME, organism-based; settings: read-out: Ct
[28] = biological target: T1, Cannabinoid receptor 1; experiment: Negative allosteric modulation of human CB1 receptor extracted from HEK293 cell membrane in presence of [35S]GTP-gammaS; format: cell membranes

## O=c1c(NCCc2ccc(N3CCCC3)cc2)c(Nc2ccc(Cl)cc2)c1=O
[1]
  Activity: < 30%
[2]
  Activity: < 50%

## O=c1c(NCCc2cccs2)c(Nc2ccc(Cl)cc2)c1=O
[3]
  IC50: 0.692 µM
[1]
  Activity: < 30%
[2]
  Activity: < 50%

## O=c1c(NCCc2ccc(N3CCCCC3)cc2)c(Nc2ccc(Cl)cc2)c1=O
[1]
  Activity: < 30%
[2]
  Activity: < 50%

## CCN(CC)c1ccc(CCNc2c(Nc3ccc(Cl)cc3)c(=O)c2=O)cc1
[3]
  IC50: > 10 µM
[1]
  Activity: < 30%
[2]
  Activity: < 50%

## O=c1c(NCCc2ccc(Cl)c(Cl)c2)c(Nc2ccc(Cl)cc2)c1=O
[1]
  Activity: < 30%
[2]
  Activity: < 50%

## O=c1c(NCCc2cccc(C(F)(F)F)c2)c(Nc2ccc(Cl)cc2)c1=O
[3]
  IC50: 0.339 µM
[1]
  Activity: < 30%
[2]
  Activity: < 50%

## O=c1c(NCCc2ccc(F)cc2)c(Nc2ccc(Cl)cc2)c1=O
[1]
  Activity: < 30%
[2]
  Activity: < 50%

## O=c1c(NCCc2ccccc2Cl)c(Nc2ccc(Cl)cc2)c1=O
[3]
  IC50: 0.832 µM
[1]
  Activity: < 30%
[2]
  Activity: < 50%

## O=c1c(NCCc2ccc(Cl)cc2)c(Nc2ccc(Cl)cc2)c1=O
[1]
  Activity: < 30%
[2]
  Activity: < 50%

## O=c1c(NCCc2cccc(Cl)c2)c(Nc2ccc(Cl)cc2)c1=O
[4]
  IC50: 0.214 µM
[5]
  IC50: 0.148 µM
[6]
  EC50: 0.692 µM
[7]
  t1/2: 15.8 min
[8]
  CLH: 87.8 µL/min/mg
[9]
  t1/2: 88.3 min
[10]
  CLH: 39.9 µL/min/mg
[11]
  solubility kinetic at 2 h: < 1 µg/mL
[12]
  Papp: 3.1 10^-6 cm/s
[13]
  Papp: 6.4 10^-6 cm/s
[14]
  PPB: > 99%
[15]
  PB: > 99%
[16]
  PPB: > 99%
[17]
  concentration at 5 min: 1240 ng/mL
[18]
  Drug excretion: Active
[19]
  t1/2: 30.6 min
[20]
  concentration at 0.25 h: 8.7 ng/mL
[21]
  concentration at 0.5 h: 11.7 ng/mL
[22]
  concentration at 1 h: 12.1 ng/mL
[23]
  concentration at 8 h: 4.6 ng/mL
[24]
  concentration at 0.25 h: 173 ng/mL
[25]
  concentration at 0.5 h: 59.5 ng/mL
[26]
  concentration at 1 h: 93.8 ng/mL
[27]
  concentration at 8 h: 54.8 ng/mL

## O=c1c(NCCc2ccccn2)c(Nc2ccc(Cl)cc2)c1=O
[1]
  Activity: < 30%
[2]
  Activity: < 50%

## O=c1c(NCCc2ccc(C(F)(F)F)cc2)c(Nc2ccc(Cl)cc2)c1=O
[1]
  Activity: < 30%
[2]
  Activity: < 50%

## Cc1cccc(CCNc2c(Nc3ccc(Cl)cc3)c(=O)c2=O)c1
[3]
  IC50: 0.195 µM
[1]
  Activity: < 30%
[2]
  Activity: < 50%
[4]
  IC50: 0.912 µM

## O=c1c(NCCc2ccncc2)c(Nc2ccc(Cl)cc2)c1=O
[1]
  Activity: < 30%
[2]
  Activity: < 50%

## Cc1ccc(CCNc2c(Nc3ccc(Cl)cc3)c(=O)c2=O)cc1
[3]
  IC50: 0.158 µM
[1]
  Activity: < 30%
[2]
  Activity: < 50%
[4]
  IC50: 0.646 µM

## CN(C)c1cccc(CCNc2c(Nc3ccc(Cl)cc3)c(=O)c2=O)c1
[1]
  Activity: < 30%
[2]
  Activity: < 50%

## O=c1c(NCCCc2ccccc2)c(Nc2ccc(Cl)cc2)c1=O
[3]
  IC50: 0.871 µM
[1]
  Activity: < 30%
[2]
  Activity: < 50%

## O=c1c(NCCc2ccccc2)c(Nc2ccc(Cl)cc2)c1=O
[3]
  IC50: 0.204 µM
[1]
  Activity: < 30%
[2]
  Activity: < 50%

## O=c1c(NCc2ccccc2)c(Nc2ccc(Cl)cc2)c1=O
[3]
  IC50: > 10 µM
[1]
  Activity: < 30%
[2]
  Activity: < 50%

## O=c1c(NCCc2ccc(Br)cc2)c(Nc2ccc(Cl)cc2)c1=O
[3]
  IC50: > 10 µM
[1]
  Activity: < 30%
[2]
  Activity: < 50%

## O=c1c(NCCN2CCCCC2)c(Nc2ccc(Cl)cc2)c1=O
[1]
  Activity: < 30%
[2]
  Activity: < 50%

## O=c1c(NCCc2ccc(N3CCC3)cc2)c(Nc2ccc(Cl)cc2)c1=O
[1]
  Activity: < 30%
[2]
  Activity: < 50%

## COc1ccccc1CCNc1c(Nc2ccc(Cl)cc2)c(=O)c1=O
[1]
  Activity: < 30%
[2]
  Activity: < 50%

## O=c1c(NCCc2cccc(F)c2)c(Nc2ccc(Cl)cc2)c1=O
[3]
  IC50: 0.282 µM
[1]
  Activity: < 30%
[2]
  Activity: < 50%

## Cc1ccccc1CCNc1c(Nc2ccc(Cl)cc2)c(=O)c1=O
[3]
  IC50: 1.26 µM
[1]
  Activity: < 30%
[2]
  Activity: < 50%

## O=c1c(NCCc2ccc(F)cc2F)c(Nc2ccc(Cl)cc2)c1=O
[3]
  IC50: 0.912 µM
[1]
  Activity: < 30%
[2]
  Activity: < 50%

## COc1ccc(CCNc2c(Nc3ccc(Cl)cc3)c(=O)c2=O)cc1
[3]
  IC50: 0.525 µM
[1]
  Activity: < 30%
[2]
  Activity: < 50%

## O=c1c(NCCc2ccccc2F)c(Nc2ccc(Cl)cc2)c1=O
[3]
  IC50: 0.269 µM
[1]
  Activity: < 30%
[2]
  Activity: < 50%
[28]
  IC50: 6.61 µM
[4]
  IC50: 5.62 µM

## CN(C)c1ccc(CCNc2c(Nc3ccc(Cl)cc3)c(=O)c2=O)cc1
[3]
  IC50: 0.501 µM
[1]
  Activity: < 30%
[2]
  Activity: < 50%
[4]
  IC50: 0.617 µM

## O=c1c(NCCc2ccc(Cl)cc2Cl)c(Nc2ccc(Cl)cc2)c1=O
[2]
  Activity: < 50%

## O=c1c(NCCc2ccccc2C(F)(F)F)c(Nc2ccc(Cl)cc2)c1=O
[1]
  Activity: < 30%
[2]
  Activity: < 50%

## O=c1c(Nc2ccc(Cl)cc2)c(N2CCN(c3ccc(Cl)cc3)CC2)c1=O
[3]
  IC50: > 10 µM
[1]
  Activity: < 30%
[2]
  Activity: < 50%

## Cc1ccc(CCNc2c(Nc3ccc(Cl)cc3)c(=O)c2=O)cc1C
[3]
  IC50: 0.427 µM
[1]
  Activity: < 30%
[2]
  Activity: < 50%

## O=c1c(NCCc2cccc(O)c2)c(Nc2ccc(Cl)cc2)c1=O
[3]
  IC50: > 10 µM
[1]
  Activity: < 30%
[2]
  Activity: < 50%

## COc1cccc(CCNc2c(Nc3ccc(Cl)cc3)c(=O)c2=O)c1
[1]
  Activity: < 30%
[2]
  Activity: < 50%

## CC(=O)c1ccc(CCNc2c(Nc3ccc(Cl)cc3)c(=O)c2=O)cc1
[3]
  IC50: > 10 µM
[1]
  Activity: < 30%
[2]
  Activity: < 50%

## O=C(Nc1ccc(Cl)cc1)Nc1cccc(-c2cccc(N3CCCC3)n2)c1
[2]
  Activity: < 50%
